This is an account of results in patent publication US7541021B2, “Process for preparation of a sterile suspension of corticosteroid particles for the administration by inhalation” (Chiesi Farmaceutici S.p.A., priority 2002, dated 2009).

A short description of series [1]: Particle size of micronised BDP by Malvern apparatus. The format is physicochemical. To be noted: micronised powder. The procedure:
The dimensional characteristics of the particles were also evaluated by using a Malvern apparatus. This type of test exploits the diffraction of a laser beam by the particles to determine the size distribution of the particles in suspension. The parameter considered is the median volumetric diameter in μm of 10%, 50% and 90% of the particles, expressed as d(v,0.1), d(v,0.5) and d(v,0.9) respectively, which is determined by assuming that the particles have a geometrical shape equivalent to a sphere. Advantageously, in the suspension formulation of the invention, the d(v,0.9) after sonication is less than 8 μm and the d(v,0.5) is comprised between 2 and 3.5 μm.

A short description of series [2]: Apparent volumes and densities (European Pharmacopoeia 2.9.15) of micronised BDP powder. The series is classed as physicochemical. To be noted: for dv, apparent density before settling: 100 g in 250 ml cylinder; for ds, apparent density after packing: after compacting. The method, then:
The apparent volumes and densities were measured according to the European Pharmacopoeia, 4th edition, paragraph 2.9.15. 100 g of the test substance is introduced into a dry 250 ml cylinder without compacting it. The unsettled apparent volume (Vo) is read off, then 10, 500 and 1250 taps are performed, and volumes (V10, V500 and V1250) are read. If the difference between V500 and V1250 is greater than 2 ml, 1250 further taps are performed (V2500).

A short description of series [3]: Elimination of 17-BMP after nebulisation of aqueous BDP suspensions versus pressurised aerosol suspensions. The format is in vivo. To be noted: after aqueous suspensions of BDP by nebulisation, compared with suspension formulations as pressurised aerosols. An excerpt:
It has also been observed that due to the formation of the monoester in the lung cells, the elimination half-life and the mean residence time of 17-BMP are longer after the administration of aqueous suspensions of BDP by nebulisation than formulations in suspension administered in the form of pressurised aerosols.

The subject of series [4] is microsomes of human lung cells. The experiment in a line: Formation of fatty acid esters of 17-BMP in lung microsomes. The format is in vitro ADME.

For the molecule `CCC(=O)OCC(=O)[C@@]1(OC(=O)CC)[C@@H](C)C[C@H]2[C@@H]3CCC4=CC(=O)C=C[C@]4(C)[C@@]3(Cl)[C@@H](O)C[C@@]21C` [Non-irradiated BDP, beclomethasone dipropionate], in series [1], the “Particle size d (v, 0.1)” value turned out to be 0.49 μm; the “Particle size d (v, 0.5)” value is recorded as 1.91 μm; the “Particle size d (v, 0.9)” value worked out at 5.98 μm. In series [2], the “Cs, packing capacity (difference between V10 and V500)” value was determined as 16 mL; the “dv, apparent density before settling” value was found to be 0.21 g/mL; the “ds, apparent density after packing” value was 0.27 g/mL.
For `CCC(=O)OCC(=O)[C@@]1(OC(=O)CC)[C@@H](C)C[C@H]2[C@@H]3CCC4=CC(=O)C=C[C@]4(C)[C@@]3(Cl)[C@@H](O)C[C@@]21C` [Irradiated BDP, beclomethasone dipropionate], in series [1], the “Particle size d (v, 0.1)” value stood at 0.48 μm; the “Particle size d (v, 0.5)” value is 1.81 μm; the “Particle size d (v, 0.9)” value came to 5.73 μm. Moreover, in series [2], the “Cs, packing capacity (difference between V10 and V500)” value worked out at 12 mL; the “dv, apparent density before settling” value turned out to be 0.32 g/mL; the “ds, apparent density after packing” value amounted to 0.42 g/mL.
As to `CCC(=O)O[C@]1(C(=O)CO)[C@@H](C)C[C@H]2[C@@H]3CCC4=CC(=O)C=C[C@]4(C)[C@@]3(Cl)[C@@H](O)C[C@@]21C` [17-BMP, beclomethasone-17-monopropionate], in series [3], the elimination half-life result is on record as “longer” and the mean residence time result is reported as “longer”. In addition, the “Formation of stable esters with long-chain fatty acids such as oleic acid” value in series [4] is on record as “are formed”.
